# From patent publication US20150284362A1, “CARBAZOLE-CONTAINING AMIDES, CARBAMATES, AND UREAS AS CRYPTOCHROME MODULATORS” (ReSet Therapeutics, Inc., priority 2014, published 2015)
# How the values were obtained:
# db/db mice = test: Single dose at peak or nadir of clock gene expression, OGTT in db/db mouse model of type II diabetes; type: in vivo; details: single dose 50 mg/kg PO at peak (ZT0) of Cry1 and Bmal1 expression
# From the text: Mice were split into two study arms, to be dosed at either the peak or nadir of Cry1 and Bmal1 gene expression. […] Mice dosed at ZT10 were fasted beginning at 8:30 am in the same manner.
# Significance was accepted when p<0.05.
# [1] = test system: core clock gene mRNAs in liver; test: 24 hour gene expression study, liver mRNA by RT-qPCR, Balb/c mice; type: in vivo, mouse; details: 50 mg/kg PO BID, 7 doses
# Method: E.Z.N.A.® HP Total RNA Isolation Kits (R6812-01 and the protocol described in the Manual, Revised 2010) were utilized to prepare and isolate RNA from the liver samples. To prepare the RNA samples, 10-30 mg of sample was removed from RNA-Later and placed in a 1.5 ml microfuge tube. GTC lysis buffer (700 μl) was added to the tissue, which was homogenized with a rotor-stator homogenizer (e.g. Tissue-Tearor, Model #985370 BioSpec Products with 4.5 mm probe, Cat. #985370-04), and then centrifuged at full speed (≧13,000×g) for 5 minutes. The cleared supernatant was transferred by pipetting to a DNA Clearance Column Pre-inserted in a 2 mL Collection Tube. The assembled column was centrifuged at 13,000×g for 1 minute, and the flow-through was saved. An equal volume (700 μl) of 70% ethanol was added to the lysate and mixed. The sample was then applied to a HiBind RNA spin column placed into a 2 ml collection tube, which was centrifuged at 10,000×g for 60 seconds at room temperature. RNA Wash Buffer I (250 μl) was added by pipetting directly onto a new HiBind RNA column inserted in a 2 ml collection tube. The assembled column was centrifuged at 10,000×g for 60 seconds. The RNA column was placed into a new 2 ml collection tube. DNase I stock solution is pipetted (75 μl) directly onto the surface of the HiBind RNA resin in each column (Using DNAse Digestion with RNase Free DNase Set (E1091): for each HiBind RNA column, the DNase I stock solution was prepared as followed: E.Z.N.A.® DNase I Digestion Buffer 73.5 μl, RNase Free DNase I (20 Kunitz/μl) 1.5 μl=Total Volume 75 μl.). The column with bound RNA was incubated at room temperature (25-30° C.) for 15 minutes. RNA Wash Buffer I (500 μl) was added to the column and placed on a bench top for 2 minutes. After centrifuging at 10,000×g for 60 seconds, discarding the flow-through, 500 μl of RNA Wash Buffer II was added and centrifuged at 10,000×g for 60 seconds. Another 500 μl of RNA Wash Buffer II was added and the column assembly was centrifuged at 10,000×g for 60 seconds. The column was centrifuged for 2 minutes at maximum speed to completely dry the HiBind matrix. […]
# RediPlate 96 RiboGreen RNA Quantification Kit (Invitrogen) RediPlate standard curve was prepared by transferring 20 μl reconstituted RNA standard to a RediPlate well reconstituted in 180 μl RediPlate TE buffer. […] After transferring 5 μl to RediPlate well reconstituted in 195 μl TE buffer and incubating 10 min. at RT, Fluorescence Intensity of wells with standards and samples were read in a Tecan M200 with Excitation set at 480 nm and Emission set at 520 nm with the gain set to ˜70%. […] A standard curve was generated in GraphPad Prism and sample readings (unknowns) are interpolated via linear regression analysis, and the RNA sample concentrations were calculated. […]
structure (smiles),measurement,setting,value
"O=C1NCCN1CC(O)Cn1c2ccc(F)cc2c2cc(F)ccc21 (centres unmarked) [Compound 72, 1-(3-(3,6-difluoro-9H-carbazol-9-yl)-2-hydroxypropyl)imidazolidin-2-one]",effect on OGTT measurement,db/db mice,apparent effect
same,Bmal1 mRNA in liver,[1]; at ZT8 and 32 hours after ZT0 vs vehicle,substantially increased
same,Per2 mRNA in liver,[1]; over 24 hours vs vehicle,suppressed
same,Cry1 mRNA in liver,[1]; vs vehicle,suppressed during its peak of expression during the dark period
same,Cry2 mRNA in liver (daytime peak),[1]; vs vehicle,strongly attenuated
